The record followed here is patent US20050154031A1, “5-Ht2b receptor antagonists” (priority 2002, published 2005).

The IC50 is the midpoint of a concentration-inhibition curve. A low value points to inhibition by little substance.

Assay [1] concerns the target T1, cloned human 5-HT2C receptor (Homo sapiens, UniProt P28335).
T1 construct: purchased Euroscreen; host or cells: CHO-K1
T1 sequence (P28335 33-458): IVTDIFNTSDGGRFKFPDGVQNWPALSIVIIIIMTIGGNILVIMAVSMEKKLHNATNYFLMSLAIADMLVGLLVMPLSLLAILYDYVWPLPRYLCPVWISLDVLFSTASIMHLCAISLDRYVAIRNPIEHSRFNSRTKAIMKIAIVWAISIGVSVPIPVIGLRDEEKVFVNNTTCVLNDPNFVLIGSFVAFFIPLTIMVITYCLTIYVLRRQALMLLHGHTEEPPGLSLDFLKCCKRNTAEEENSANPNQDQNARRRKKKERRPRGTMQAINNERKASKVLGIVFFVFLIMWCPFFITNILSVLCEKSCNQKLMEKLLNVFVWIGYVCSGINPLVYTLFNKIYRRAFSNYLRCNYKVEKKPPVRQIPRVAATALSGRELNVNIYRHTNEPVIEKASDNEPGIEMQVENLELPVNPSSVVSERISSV
Description: Human 5-HT2C receptor binding assay ([3H]mesulergine). Particulars: membranes of CHO-K1 cells expressing cloned human 5-HT2C receptor, [3H]mesulergine 1 nM; read-out: 5-HT2C pKi (converted). As to the method: (§1) Human 5-HT2A and 5-HT2C Receptor Binding Assays
(§2) The binding affinity of ligands for human 5-HT2A and 5-HT2C receptors was determined using the following assay.
Membrane preparations from CHO-K1 cells expressing the cloned human 5-HT2C receptor were obtained (Euroscreen). The membranes were thawed rapidly and diluted in assay buffer containing Tris-HCl (50 mM, pH 7.7), ascorbic acid (0.1%) and pargyline (10 μM). The membranes were resuspended by homogenisation, prior to adding 6 μg of membranes to assay wells containing [^3H] mesulergine (1 nM), assay buffer (50 mM Tris at pH 7.7 and 0.1% ascorbic acid) containing pargyline (10 μM), and test compounds (1×10^−10 to 1×10^−4M). Non specific binding was determined in the presence of 100 μM mianserin. After 30 minutes incubation at 37° C., the assay mixture was filtered through a combination of GF-C and GF-B filters, pre-soaked in 1% bovine serum albumin, using a Brandel cell harvester, and were washed three times using ice cold Tris-HCl buffer (50 mM). Radioactivity retained on the filters was determined by liquid scintillation counting. For each test compound, the concentration that inhibited binding of [^3H]mesulergine by 50% was determined using curve fitting software (Prism). Kd values (concentration of mesulergine required to occupy 50% of the receptor binding sites at equlibrium) determined from saturation binding studies were then used to calculate inhibition dissociation constants (Ki) using the following equation: [formula]

Assay [2] has as its target T2, human cloned 5-HT2B receptors (Homo sapiens, UniProt P41595).
T2 construct: expressed in transfected cells; host or cells: CHO-K1
Description: Human cloned 5-HT2B receptor binding assay ([3H]LSD). As to conditions: membranes of CHO-K1 cells expressing cloned 5-HT2B receptor, [3H]LSD 1 nM; read-out: 5-HT2B pKi (converted). As to the method:
Human Cloned 5-HT2B Receptor Binding Assay
The binding affinity of the compounds for human cloned 5-HT2B receptors was determined using the following assay.
CHO-K1 cells expressing cloned 5-HT2B receptor were maintained in Ultra-CHO medium containing 400 μg/ml of G418, 100 U/ml penicillin, 100 μg/ml streptomycin, 2.5 μg/ml fungizone and 1% foetal bovine serum, in 95/5% O2/CO2 at 37° C. The cells were harvested using 0.25% trypsin and were centrifuged at 800 rpm for 8 minutes. The cells were homogenised in 50 mM HEPES buffer containing 1 mM disodium EDTA and 1 mM PMSF at pH 7.4, using a Dounce homogeniser (20 strokes). The homogenate was centrifuged at 2280 rpm (1000 g) and 4° C. for 10 minutes, after which the supernatant was removed by decanting. The pellet was re-homogenised as above, and the resulting supernatant removed and combined with that already obtained. The supernatant solution was then centrifuged at 18300 rpm (40000 g) for 10 minutes at 4° C. using a Sorvall centrifuge. The supernatant was removed, and the pellet was re-suspended in 50 mM buffer at pH 7.4 using a Ultra-turrax T25 Polytron, before centrifugation again at 40000 g as above. This wash procedure was repeated, after which the membrane preparation was stored at a concentration of 1 mg/ml at −80° C. until use.
The membranes were thawed rapidly and diluted in assay buffer containing Tris-HCl (50 mM, pH 7.4), ascorbic acid (0.1%) and calcium chloride (4 mM). The membranes were homogenised to resuspend them, prior to adding 10 or 15 μg of membranes to assay wells containing [^3H]LSD (1 nM), assay buffer (50 mM Tris, 4 mM calcium chloride and 0.1% ascorbic acid) containing pargyline (10 μM), and the test compounds (1×10^−10 to 1×10^−4 M). Non specific binding was determined in the presence of 100 μM 5-HT. After 30 minutes incubation at 37° C., the assay mixture was filtered through a combination of GF-C and GF-B filters, pre-soaked in 1% polyethyleneimine, using a Brandel cell harvester, and were washed three times using 50 mM Tris-HCl. Radioactivity retained on the filters was determined by liquid scintillation counting. For each test compound, the concentration that inhibited binding of [^3H)LSD by 50% was determined using curve fitting software (Prism). Kd values (concentration of LSD required to occupy 50% of the receptor binding sites at equilibrium) determined from saturation binding studies were then used to calculate inhibition dissociation constants (Ki) using the following equation: [formula]
This approach follows that set out in Kenakin, T. P. Pharmacologic analysis of drug-receptor interaction. Raven Press, New York, 2nd Edition, which is incorporated herein by reference.

Assay [3] deals with T2, human cloned 5-HT2B receptors. The experiment in a line: Human cloned 5-HT2B cell-based functional assay (Fluo-4, block of 5-HT response). As to conditions: CHO.K1 cells expressing cloned 5-HT2B receptor, inhibition of the 5-HT response. As to the method:
Human Cloned […] Cell-Based Functional Assay The following describes an in vitro functional assay using human cloned 5-HT2B receptors to determine the ability of compounds to block the receptor. CHO.K1 cells expressing cloned 5-HT2B receptor were maintained In Ultra-CHO medium containing 400 μg/ml of G418, 100 U/ml penicillin, 100 μg/ml streptomycin, 2.5 μg/ml fungizone, in 95/5% O2/CO2 at 37° C. Ultra-CHO medium additionally supplemented with 1% foetal bovine serum was used when seeding the cells and removed after 5 hours. Cells were plated in Costar 96 well white, clear-bottomed plate at a density of 50,000 cells per well and incubated for at least 24 hours in 95/5% O2/CO2 at 37° C. before running the assay. Media was removed from the wells and 200 μl of 4 μM Fluo-4 AM added, this was incubated in a Wallace Victor 2V workstation at 37° C. for 30 minutes. The Fluo-4 AM was then removed from the wells, which were then washed twice with 200 μl of buffer (HBSS without calcium/magnesium/phenol red, 20 mM HEPES, 1 mM Ca^2+, 1 mM Mg^2+, 2.5 mM probenecid, pH to 7.4), 180 μl of buffer or test compound was added to the well and incubated for 30 minutes. The Victor 2V injectors were used to inject 20 μl of 5-HT after obtaining 10 0.1-second baseline readings at 535 nm, followed by 150 readings. All test compounds were aliquoted in 100% DMSO at 10 mM and diluted to 1 mM in 50% DMSO, subsequent dilutions were made using buffer. Buffer was also used to dilute the 5-HT. Data were analysed using Microsoft Excel and GraphPad Prism, with the latter used to produce sigmoidal dose-response curves for each compound. The compound concentration that inhibited the 5-HT response by 50% was taken (IC50−M), and the results are shown in Table 2, as pIC50, being the negative log (to the base 10) of the measured IC50 values.

For assay [4], the target named is T3, cloned human 5-HT2A receptor (Homo sapiens, UniProt P28223).
T3 construct: purchased Euroscreen; host or cells: CHO-K1
The experiment in a line: Human 5-HT2A receptor binding assay ([3H]ketanserin). As to conditions: membranes of CHO-K1 cells expressing cloned human 5-HT2A receptor, [3H]ketanserin 1 nM; read-out: 5-HT2A pKi (converted). As to the method: as §1, §2
Membrane preparations from CHO-K1 cells expressing the cloned human 5-HT2A receptor were obtained (Euroscreen). The membranes were thawed rapidly and diluted in assay buffer containing Tris-HCl (50 mM, pH 7.7). The membranes were resuspended by homogenisation, prior to adding 15 μg of membranes to assay wells containing [^3H] ketanserin (1 nM), assay buffer (50 mM Tris at pH 7.4) containing pargyline (10 μM), and test compounds (1×10^−10 to 1×10^−4M). Non specific binding was determined in the presence of 100 μM mianserin. After 15 minutes incubation at 37° C., the assay mixture was filtered through a combination of GF-C and GF-B filters, pre-soaked in 0.05% Brij, using a Brandel cell harvester, and were washed three times using ice cold Tris-HCl buffer (50 mM). Radioactivity retained on the filters was determined by liquid scintillation counting. For each test compound, the concentration that inhibited binding of [^3H]ketanserin by 50% was determined using curve fitting software (Prism). Kd values (concentration of ketanserin required to occupy 50% of the receptor binding sites at equlibrium)determined from saturation binding studies were then used to calculate inhibition dissociation constants (Ki) using the following equation: [formula]

T3 sequence (P28223 whole entry): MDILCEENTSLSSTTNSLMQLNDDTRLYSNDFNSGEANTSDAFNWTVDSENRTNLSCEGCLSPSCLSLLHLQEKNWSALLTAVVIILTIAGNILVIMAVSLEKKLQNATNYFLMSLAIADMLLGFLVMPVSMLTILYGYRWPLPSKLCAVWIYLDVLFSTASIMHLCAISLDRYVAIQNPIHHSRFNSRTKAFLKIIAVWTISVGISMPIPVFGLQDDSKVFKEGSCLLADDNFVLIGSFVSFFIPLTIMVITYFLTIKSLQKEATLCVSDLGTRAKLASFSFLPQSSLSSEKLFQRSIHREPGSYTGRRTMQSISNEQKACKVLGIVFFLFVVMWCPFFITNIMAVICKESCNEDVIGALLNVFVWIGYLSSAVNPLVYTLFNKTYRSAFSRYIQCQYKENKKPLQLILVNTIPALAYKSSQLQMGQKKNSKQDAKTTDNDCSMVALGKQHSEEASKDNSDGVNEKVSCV
T2 sequence (P41595 whole entry): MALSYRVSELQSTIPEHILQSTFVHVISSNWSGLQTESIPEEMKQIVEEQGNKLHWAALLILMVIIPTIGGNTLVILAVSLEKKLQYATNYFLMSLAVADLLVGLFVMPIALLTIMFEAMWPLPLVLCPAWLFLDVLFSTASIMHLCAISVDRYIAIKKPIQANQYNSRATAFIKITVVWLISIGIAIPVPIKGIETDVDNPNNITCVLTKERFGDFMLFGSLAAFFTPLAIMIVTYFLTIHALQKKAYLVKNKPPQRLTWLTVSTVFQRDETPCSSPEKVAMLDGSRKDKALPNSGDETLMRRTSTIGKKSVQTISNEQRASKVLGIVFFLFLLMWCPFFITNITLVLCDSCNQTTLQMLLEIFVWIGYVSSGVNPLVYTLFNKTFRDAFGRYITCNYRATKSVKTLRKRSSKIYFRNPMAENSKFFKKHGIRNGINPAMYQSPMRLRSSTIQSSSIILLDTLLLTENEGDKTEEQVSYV

`Cc1sc(N)nc1-c1cccc2ccccc12` [Compound 1, 2-amino-5-methyl-4-(naphth-1-yl)thiazole]: the results for the Ki in assay [1], in assay [2] and in assay [4] were more than 1000 nM, less than 1000 nM and more than 10000 nM, respectively. The IC50 in assay [3] was less than 1000 nM.

For `CC(C)c1sc(N)nc1-c1cccc2ccccc12` [Compound 2, 2-amino-5-isopropyl-4-(naphth-1-yl)thiazole], the values for the Ki in assay [1], in assay [2] and in assay [4] were more than 1000 nM, less than 100 nM and more than 1000 nM, respectively. Besides, in assay [3], the IC50 was less than 100 nM.

Regarding `Nc1nc(-c2cccc3ccccc23)cs1` [Compound 3, 2-amino-4-(naphth-1-yl)thiazole], the Ki in assay [1] was more than 1000 nM; in assay [2], less than 1000 nM; in assay [4], more than 1000 nM. Also, the IC50 in assay [3] is less than 1000 nM.

With `Nc1nc(-c2ccc3ccccc3c2)cs1` [Compound 4, 2-amino-4-(naphth-2-yl)thiazole], the Ki in assay [1] was more than 10000 nM; in assay [2] it was less than 10000 nM; in assay [4] it was more than 10000 nM. The compound also showed an IC50 in assay [3] of less than 10000 nM.
